Key:
[1] = system: MXT tumor; assay: MXT mouse mammary tumor model: tumor volume and survival; format: in vivo; settings: for Tumor volume, Day 7: start of treatment
Excerpt: Tumors were developed in first generation hybrid BDF1 (C57 B1 female×DBA/2 male) adult female mice kept at specified pathogen free (SPF) hygienic level. Suspensions of HL-60 human leukemia cells, or approximately 0.1 cm^3 volume of tumor tissue derived from HT-168 human melanoma, PC-3 human prostate adenocarcinoma, T47D human breast carcinoma, MXT mouse mammary cancer, or mouse B16 melanoma cells were implanted subcutaneously to develop the tumors. After 12-18 days when the tumor-bearing mice were first treated, the size of the tumors was in the 0.2-0.4 cm^3 range. All compounds used were dissolved in physiological (0.9%) saline (NaCl), and the agents, alone or in combinations, were applied subcutaneously or intraperitoneally in 50 μl volume. Tumor volume was determined by calipers in three dimensions; this technique is well known to one having ordinary skill in the art. Tumor volume was calculated according to the generally accepted formula: V=a^2×b×π/6, where “a” and “b” mean the shortest and longest diameter, respectively, of the measured tumor.
The mouse mammary MXT tumor was developed as described above. On day 7 after transplantation of tumor cells, the animals were either remained untreated (group 1) or were treated with 2 mg/kg of CisPt alone (Group 2), or 4 mg/kg of CisPt alone (Group 3), or 4.6 mg/kg of CCDTHT alone (Group 4), or 2 mg/kg of CisPt+4.6 mg/kg of CCDTHT (Group 5), or 4 mg/kg of CisPt+4.6 mg/kg of CCDTHT (Group 6). CCDTHT and CisPt were administered subcutaneously and intraperitoneally, respectively, once daily for 10 days, including a 2-day rest period after 5 days of treatment (i.e., the last treatment was on day 19). Each group consisted of 7 animals, and the mean values±std. dev. for tumor volumes and body weight are shown in TABLE 4 and TABLE 5, respectively. While in this tumor model CCDTHT alone reduced the tumor volume less effectively than in the human tumor models, it clearly added to the tumor volume-reducing effect of CisPt (TABLE 4). A dramatic reduction in tumor volume was particularly evident in Group 6 (4 mg/kg CisPt+4.6 mg/kg CCDTHT).
(§1) The mouse mammary MXT tumor model was developed and treated as described above. On day 7 the animals were either remained untreated (Group 1) or were treated with 3 mg/kg of CisPt (Group 2) or 3 mg/kg of CisPt+15 mg/kg of highly purified PALP (Group 3). CisPt and PALP were administered intraperitoneally and subcutaneously, respectively, seven times on every second day (i.e., treatments were terminated on day 21). Each group included 7 animals; the mean values±std. dev. for tumor volumes and body weight are shown in TABLE 6 and TABLE 7, respectively.
The mouse mammary MXT tumor model was developed and treated as described above. On day 7 the animals either remained untreated (Group 1) or were treated with 3 mg/kg CisPt (Group 2), 3 mg/kg CisPt+4.6 mg/kg of CCDTHT (Group 3), or 3 mg/kg CisPt+4.6 mg/kg of CCDTHT+15 mg/kg highly purified PALP (Group 4). CisPt was administered intraperitoneally 9-times once every second day; CCDTHT was administered for 15 days once daily; and PALP was administered 3 times every 3rd day. In each group 7 mice were included. The mean values±std. dev. for tumor volumes and body weights are shown in TABLE 9 and TABLE 10, respectively.

[2] = Body weight of animals in the MXT tumor model; format: in vivo, mouse; settings: for Body weight, Day 7: start of treatment
Description: The mouse mammary MXT tumor was developed as described above. […] CCDTHT and CisPt were administered subcutaneously and intraperitoneally, respectively, once daily for 10 days, including a 2-day rest period after 5 days of treatment (i.e., the last treatment was on day 19). Each group consisted of 7 animals, and the mean values±std. dev. for tumor volumes and body weight are shown in TABLE 4 and TABLE 5, respectively.
as §1, with “On day 7 the animals were either remained untreated (Group 1) or were treated with 3 mg/kg of CisPt (Group 2) or 3 mg/kg of CisPt+15 mg/kg of highly purified PALP (Group 3).” left out
The mouse mammary MXT tumor model was developed and treated as described above. […] In each group 7 mice were included. The mean values±std. dev. for tumor volumes and body weights are shown in TABLE 9 and TABLE 10, respectively.

[3] = system: cancer cells; assay: Induction of cancer cell death by quaternary nitrogen dyes compared with CCDTHT; format: cell-based
Excerpt: Despite these observations, for the purpose of embodiments of the invention, the thioxanthene or thioxanthone moiety may be replaced with any other heterocyclic moiety to which it is feasible to attach at least one quaternary nitrogen group with three substituents that together are capable of inhibiting the transport of external choline into cells and thereby inhibit cell proliferation.

[4] = Example 31, CisPt 2 mg/kg i.p. and/or CCDTHT 4.6 mg/kg s.c., once daily
[5] = Example 31, CisPt 2 mg/kg i.p. and/or CCDTHT 4.6 mg/kg s.c.
[6] = Example 31, CisPt 4 mg/kg i.p. without or with CCDTHT 4.6 mg/kg s.c., once daily
[7] = Example 31, CisPt 4 mg/kg i.p. without or with CCDTHT 4.6 mg/kg s.c.
[8] = Example 32, CisPt 3 mg/kg i.p. without or with PALP 15 mg/kg s.c., every second day
[9] = Example 32, CisPt 3 mg/kg i.p. without or with PALP 15 mg/kg s.c.
[10] = Example 34, CisPt 3 mg/kg i.p. every second day, CCDTHT 4.6 mg/kg once daily, PALP 15 mg/kg every 3rd day
[11] = Example 34, CisPt 3 mg/kg i.p., CCDTHT 4.6 mg/kg, PALP 15 mg/kg

N.N.[Cl][Pt][Cl] [CisPt, Cisplatin]
survival ([1]; Example 31, CisPt 2 mg/kg and/or CCDTHT 4.6 mg/kg (groups 2, 4, 5)): 32.7 ± 6.2 days | Tumor volume, Day 14 [1, 4]: 3.34 ± 1.04 cm^3 | Tumor volume, Day 18 [1, 4]: 5.37 ± 0.68 cm^3 | Tumor volume, Day 21 [1, 4]: 6.23 ± 0.86 cm^3 | Tumor volume, Day 7 [1, 5]: 0.46 ± 0.08 cm^3 | Tumor volume, Day 14 [1, 6]: 1.77 ± 0.40 cm^3 | Tumor volume, Day 18 [1, 6]: all dead | Tumor volume, Day 21 [1, 6]: all dead | Tumor volume, Day 7 [1, 7]: 0.45 ± 0.10 cm^3 | survival ([1]; Example 31, CisPt 4 mg/kg without or with CCDTHT 4.6 mg/kg (groups 3, 6)): 18.1 ± 0.7 days | Tumor volume, Day 11 [1, 8]: 1.45 ± 0.22 cm^3 | Tumor volume, Day 16 [1, 8]: 4.53 ± 1.00 cm^3 | Tumor volume, Day 21 [1, 8]: 5.86 ± 1.38 cm^3 | Tumor volume, Day 7 [1, 9]: 0.38 ± 0.01 cm^3 | survival ([1]; Example 32, CisPt 3 mg/kg without or with PALP 15 mg/kg): 31.1 ± 6.2 days | survival time ([1]; Example 34, CisPt 3 mg/kg alone or with CCDTHT 4.6 mg/kg + PALP 15 mg/kg): 34 days | Tumor volume, Day 11 [1, 10]: 1.92 ± 0.67 cm^3 | Tumor volume, Day 15 [1, 10]: 3.80 ± 1.30 cm^3 | Tumor volume, Day 21 [1, 10]: 6.64 ± 1.28 cm^3 | Tumor volume, Day 7 [1, 11]: 0.36 ± 0.12 cm^3 | Body weight, Day 14 [2, 4]: 22.9 ± 0.87 g | Body weight, Day 18 [2, 4]: 22.3 ± 1.02 g | Body weight, Day 21 [2, 4]: 21.2 ± 1.31 g | Body weight, Day 7 [2, 5]: 22.4 ± 0.73 g | Body weight, Day 14 [2, 6]: 19.4 ± 1.05 g | Body weight, Day 18 [2, 6]: all dead | Body weight, Day 21 [2, 6]: all dead | Body weight, Day 7 [2, 7]: 22.5 ± 0.92 g | Body weight, Day 11 [2, 8]: 23.1 ± 0.52 g | Body weight, Day 16 [2, 8]: 20.9 ± 0.65 g | Body weight, Day 21 [2, 8]: 19.2 ± 0.66 g | Body weight, Day 7 [2, 9]: 22.7 ± 0.37 g | Body weight, Day 11 [2, 10]: 23.10 ± 1.40 g | Body weight, Day 15 [2, 10]: 22.9 ± 1.00 g | Body weight, Day 21 [2, 10]: 20.6 ± 1.80 g | Body weight, Day 7 [2, 11]: 22.2 ± 1.10 g

CN(C)c1ccc2nc3c(C(=O)O)cc(=O)c(O)c-3oc2c1.Cl [gallocyanine]
inducing cancer cell death, compared with CCDTHT [3]: ineffective or less effective

C[N+](C)=c1ccc2nc3c(ccc4ccccc43)oc-2c1.[Cl-].[Cl-].[Cl-].[Zn+2] [meldola blue]
inducing cancer cell death, compared with CCDTHT [3]: ineffective or less effective

CN(C)c1ccc(C(=C2C=CC(=[N+](C)C)C=C2)c2ccc([N+](C)(C)C)cc2)cc1.[Cl-].[Cl-] [methyl green]
inducing cancer cell death, compared with CCDTHT [3]: ineffective or less effective

CN(C)c1ccc2nc3ccc(=[N+](C)C)cc-3sc2c1 [methylene blue]
inducing cancer cell death, compared with CCDTHT [3]: ineffective or less effective

CN(C)c1ccc2nc3ccc(=[N+](C)C)c([N+](=O)[O-])c-3sc2c1.[Cl-] [methylene green]
inducing cancer cell death, compared with CCDTHT [3]: ineffective or less effective

CN(C)c1ccc2cc3ccc(=[N+](C)C)cc-3oc2c1.[Cl-] [pyronin]
inducing cancer cell death, compared with CCDTHT [3]: ineffective or less effective

celestine blue
inducing cancer cell death, compared with CCDTHT [3]: ineffective or less effective

— patent publication US7943606B2, “Compositions and methods to control abnormal cell growth” (CanCure Laboratories, LLC, priority 2005, dated 2011)
